Experimental data reported in the supplement of paper PMC10307832.

Tests used:
Assay in all cases: relative viability (nuclei count vs DMSO), 5 days (fraction); higher = more cells survive
Wnt-C59 + Palbociclib = compound: CC1=NC=CC(=C1)C2=CC=C(C=C2)CC(=O)NC3=CC=C(C=C3)C4=CN=CC=C4 [Wnt-C59] + CC(=O)c1c(C)c2cnc(Nc3ccc(N4CCNCC4)cn3)nc2n(C2CCCC2)c1=O [Palbociclib] (partner 0.5 µM)
Outline: (§1)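 One day after seeding in 1536-well plates, lung cancer cell lines were dosed by pin tool. Dosing was either single-drug or a fixed anchor-drug dose plus five library-drug doses (not always all listed) in √10 steps. After 5 days, nuclei were stained in one fix-and-stain step and counted on 4× images, and relative viability is the nuclei count of treated wells over that of vehicle wells, given as the median of duplicate plates.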

Wnt-C59 + Tozasertib = compound: CC1=NC=CC(=C1)C2=CC=C(C=C2)CC(=O)NC3=CC=C(C=C3)C4=CN=CC=C4 [Wnt-C59] + Cc1cc(Nc2cc(N3CCN(C)CC3)nc(Sc3ccc(NC(=O)C4CC4)cc3)n2)n[nH]1 [Tozasertib] (partner 0.1 µM)
Outline: as §1

Lapatinib + Vorinostat = compound: CS(=O)(=O)CCNCc1ccc(-c2ccc3ncnc(Nc4ccc(OCc5cccc(F)c5)c(Cl)c4)c3c2)o1 [Lapatinib] + O=C(CCCCCCC(=O)Nc1ccccc1)NO [Vorinostat] (partner 1 µM)
Outline: as §1

Lapatinib + Pemetrexed = compound: CS(=O)(=O)CCNCc1ccc(-c2ccc3ncnc(Nc4ccc(OCc5cccc(F)c5)c(Cl)c4)c3c2)o1 [Lapatinib] + Nc1nc2[nH]cc(CCc3ccc(C(=O)N[C@@H](CCC(=O)O)C(=O)O)cc3)c2c(=O)[nH]1 [Pemetrexed] (partner 0.2 µM)
Outline: as §1

Row | Cell Line | relative viability (Wnt-C59 + Palbociclib; first compound 0.001 µM) | relative viability (Wnt-C59 + Palbociclib; first compound 0.01 µM) | relative viability (Wnt-C59 + Palbociclib; first compound 0.03162 µM) | relative viability (Wnt-C59 + Palbociclib; first compound 0.1 µM) | relative viability (Wnt-C59 + Tozasertib; first compound 0.001 µM) | relative viability (Wnt-C59 + Tozasertib; first compound 0.01 µM) | relative viability (Wnt-C59 + Tozasertib; first compound 0.03162 µM) | relative viability (Wnt-C59 + Tozasertib; first compound 0.1 µM) | relative viability (Lapatinib + Vorinostat; first compound 0.02 µM) | relative viability (Lapatinib + Vorinostat; first compound 0.06325 µM) | relative viability (Lapatinib + Vorinostat; first compound 0.2 µM) | relative viability (Lapatinib + Vorinostat; first compound 0.6325 µM) | relative viability (Lapatinib + Vorinostat; first compound 2 µM) | relative viability (Lapatinib + Pemetrexed; first compound 0.02 µM) | relative viability (Lapatinib + Pemetrexed; first compound 0.06325 µM) | relative viability (Lapatinib + Pemetrexed; first compound 0.2 µM) | relative viability (Lapatinib + Pemetrexed; first compound 0.6325 µM) | relative viability (Lapatinib + Pemetrexed; first compound 2 µM)
1 | NCI-H2170 | 0.393 | 0.397 | 0.416 | 0.367 | 0.721 | 0.641 | 0.852 | 0.602 | 0.726 | 0.747 | 0.578 | 0.582 | 0.372 | 0.272 | 0.249 | 0.271 | 0.274 | 0.198
2 | HCC-366 | 0.461 | 0.376 | 0.402 | 0.386 | 0.156 | 0.102 | 0.111 | 0.124 |  | 0.275 | 0.391 | 0.352 | 0.202 |  | 0.239 | 0.187 | 0.149 | 0.118
3 | NCI-H2405 | 0.516 | 0.506 | 0.498 | 0.473 | 0.729 | 0.672 | 0.778 | 0.699 |  | 0.833 |  | 0.997 | 0.91 |  | 0.977 |  | 1.04 | 1.01
4 | NCI-H1648 | 0.288 | 0.241 | 0.259 | 0.23 | 0.581 | 0.611 | 0.364 | 0.524 |  | 0.271 | 0.389 | 0.587 | 0.287 |  | 0.62 | 0.789 | 0.636 | 0.64
5 | LCLC-97TM1 | 0.254 | 0.228 | 0.216 | 0.248 | 0.252 | 0.205 | 0.226 | 0.182 |  | 0.316 | 0.953 | 0.681 | 0.687 |  | 0.128 | 0.184 | 0.168 | 0.176
6 | EPLC-272H | 0.306 | 0.277 | 0.352 | 0.316 | 0.297 | 0.25 | 0.362 | 0.276 | 0.636 | 0.328 | 0.457 | 0.583 | 0.391 | 0.342 | 0.235 | 0.337 | 0.288 | 0.21
7 | NCI-H1755 | 0.454 | 0.447 | 0.438 | 0.416 | 0.647 | 0.528 | 0.646 | 0.534 | 0.731 | 0.689 | 0.801 | 0.76 | 0.676 | 0.423 | 0.405 | 0.49 | 0.451 | 0.439
8 | NCI-H1437 | 0.31 | 0.309 | 0.336 | 0.335 | 0.426 | 0.428 | 0.417 | 0.384 | 0.782 | 0.861 | 0.825 | 0.793 | 0.527 | 0.303 | 0.302 | 0.279 | 0.289 | 0.329
9 | PC-3 [JPC-3] | 0.498 | 0.532 | 0.505 | 0.512 | 0.935 | 0.922 | 0.984 | 0.911 |  | 0.804 |  | 0.637 | 0.495 |  | 1.13 |  | 0.995 | 0.588
